These results are taken from PubChem BioAssay (NCI).

“And” between values parts separate entries of the source, which are not always exact repeats. Equal entries are not always repeated.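 In this assay, cells in 96-well plates receive the compound at five concentrations for 48 hours. Endpoints are linearly interpolated between the surrounding concentrations. The concentration for 50% growth inhibition is given as GI50. The concentration for full growth arrest is given as TGI.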

Test systems include HT29 colon; HOP-92 NSCLC; SR leukemia; NCI-H460 lung; SF-268 CNS; CCRF-CEM leukemia; NCI-H23 lung; SN12C renal.
Common to all, as to assay: NCI tumour cell line growth inhibition, 48 h

In the case of `CC12OC3CC(O1)C1(C=O)C4CCC5(C)C(c6ccc(=O)oc6)CCC5(O)C4CCC1(C3)O2` (configuration not stated), the TGI with HT29 colon came out at 1.3 µM; in the assay on HOP-92 NSCLC it was 1.71 µM; in the assay with SR leukemia, 0.245 µM; with NCI-H460 lung, 0.159 µM; in the assay on SF-268 CNS, 0.229 µM; with CCRF-CEM leukemia, 1.2 µM.

Turning to `O=C(Nc1cc(Cl)c(Cl)cc1Cl)C(=O)C(C(=O)c1ccc2ccccc2c1)C1OC(=O)c2ccccc21` (configuration not stated), the TGI was 37.3 µM in the assay with HT29 colon; 7.96 µM in the assay with HOP-92 NSCLC; more than 100 µM in the assay on SR leukemia; 25.9 µM in the assay on NCI-H460 lung; 15.2 µM with NCI-H23 lung; 42.5 µM in the assay with SN12C renal.

`O=C1C2Nc3ccccc3SC2C(=O)N1c1cccc([N+](=O)[O-])c1` (configuration not stated): the TGI with HT29 colon, in the assay with HOP-92 NSCLC, in the assay with SR leukemia, in the assay on NCI-H460 lung, with SF-268 CNS and in the assay on NCI-H23 lung was more than 100 µM each time. Besides, the TGI in the assay on SN12C renal and in the assay with CCRF-CEM leukemia was more than 100 µM in each case.

Turning to `Cc1cc(C)c2[s+]snc2c1`, the TGI in the assay on HT29 colon is more than 100 µM; in the assay on SR leukemia, 77 µM; in the assay with NCI-H460 lung, more than 100 µM; with SF-268 CNS, more than 100 µM; in the assay with NCI-H23 lung it was more than 100 µM; in the assay with SN12C renal, more than 100 µM. This compound also displayed a TGI in the assay on CCRF-CEM leukemia of more than 100 µM.

With `CCc1oc2ccc(OC)c3c2c1C=CC=C3`, the TGI in the assay on HT29 colon, in the assay on SR leukemia, in the assay with NCI-H460 lung, in the assay on SF-268 CNS, in the assay on NCI-H23 lung and with SN12C renal was more than 100 µM throughout. In the assay with CCRF-CEM leukemia, the TGI was more than 100 µM.

Consider `CCC[CH2][Sn]1([CH2]CCC)[O]C(=O)c2cc(C)ccc2[O]1`, for which the GI50 in the assay with HT29 colon is 1.24 µM; with HOP-92 NSCLC, 0.327 µM; in the assay with SR leukemia it was 295 nM; in the assay on NCI-H460 lung, 1.54 µM; with SF-268 CNS, 0.268 µM; with NCI-H23 lung it was 0.332 µM. Further, the GI50 in the assay on SN12C renal was 0.547 µM; with CCRF-CEM leukemia, 0.167 µM. Further, the TGI was determined as 2.56 µM with HT29 colon; 1.65 µM in the assay with HOP-92 NSCLC; 1.28 µM in the assay with SR leukemia; 2.87 µM in the assay on NCI-H460 lung; 0.959 µM in the assay on SF-268 CNS; 1.29 µM in the assay with NCI-H23 lung. The TGI is 1.86 µM with SN12C renal and 0.561 µM in the assay with CCRF-CEM leukemia.

On to `CC(C)c1cccc(C(C)C)c1NC1=CC(=O)C(=O)c2ccccc21`, for which the TGI in the assay with HT29 colon, with HOP-92 NSCLC, in the assay on SR leukemia, with NCI-H460 lung, in the assay on SF-268 CNS and with NCI-H23 lung was more than 100 µM in each case. The TGI in the assay with SN12C renal and in the assay on CCRF-CEM leukemia was more than 100 µM each time.

As for `CC(C)[O-].CC(C)[O-].[O-]c1cccc2cccnc12.[O-]c1cccc2cccnc12.[Ti+4]`, the GI50 is 14.3 µM with HOP-92 NSCLC; 6.4 µM and 51.1 µM in the assay with SF-268 CNS; more than 100 µM in the assay with NCI-H23 lung; 1.77 µM and 3.32 µM in the assay on CCRF-CEM leukemia. Further, the TGI in the assay with HOP-92 NSCLC is 50.3 µM; in the assay on SF-268 CNS, more than 100 µM; in the assay with NCI-H23 lung it was more than 100 µM; with CCRF-CEM leukemia, more than 100 µM.

With `OC1C2C=CCC1CCC2` (configuration not stated), the TGI with HT29 colon, in the assay on HOP-92 NSCLC, in the assay on SR leukemia, in the assay on NCI-H460 lung, in the assay on SF-268 CNS and with NCI-H23 lung was more than 100 µM throughout. Moreover, the TGI in the assay with SN12C renal and in the assay with CCRF-CEM leukemia was more than 100 µM throughout.

Regarding `CCOC(=O)CNC(=O)C(CSC(=O)N(C)O)NC(=O)CCC(N)C(=O)O` (configuration not stated), the GI50 in the assay with HT29 colon, in the assay with HOP-92 NSCLC, in the assay on NCI-H460 lung, with SF-268 CNS, in the assay on NCI-H23 lung and in the assay with SN12C renal was more than 2000 µM in each case. Further, the GI50 with CCRF-CEM leukemia was more than 2000 µM. Also, the TGI with HOP-92 NSCLC is more than 2000 µM; in the assay on SR leukemia, 1.02 µM; with NCI-H460 lung, more than 2000 µM; in the assay on SF-268 CNS it was more than 2000 µM; with NCI-H23 lung, more than 2000 µM; in the assay on SN12C renal, more than 2000 µM.

With `C[C@]12CCCC(=O)C1C[C@H](C(=O)O)CC2` (some centres not stated), the TGI in the assay with HT29 colon, with HOP-92 NSCLC, in the assay on SR leukemia, in the assay on NCI-H460 lung, in the assay with SF-268 CNS and in the assay with NCI-H23 lung was more than 100 µM in each case. The TGI in the assay on SN12C renal and in the assay on CCRF-CEM leukemia was more than 100 µM in each case.

In the case of `CCOC(=O)C1CC/C(=C(/C#N)C(=O)OC)N1` (configuration not stated), the TGI in the assay with HOP-92 NSCLC, with SR leukemia, in the assay with NCI-H460 lung, in the assay on SF-268 CNS, in the assay on NCI-H23 lung and in the assay with SN12C renal was more than 100 µM throughout. This compound also came in with a TGI in the assay on CCRF-CEM leukemia of more than 100 µM.

With `NNC(=S)N/N=C/C(Cl)=C(\Cl)C(=O)O`, the TGI in the assay on HT29 colon, in the assay with HOP-92 NSCLC, with SR leukemia, with NCI-H460 lung, in the assay with SF-268 CNS and in the assay with NCI-H23 lung was more than 100 µM each time. For the same compound, the TGI in the assay with SN12C renal and in the assay on CCRF-CEM leukemia was more than 100 µM each time.

For the compound `O=[N+]([O-])c1cc(/C=N/NS(=O)(=O)c2ccc(F)cc2)c(O)c([N+](=O)[O-])c1`, the TGI is 64.6 µM in the assay with HT29 colon; more than 100 µM in the assay on HOP-92 NSCLC; 41.2 µM in the assay with SR leukemia; 84 µM in the assay with NCI-H460 lung; more than 100 µM in the assay with SF-268 CNS; 60.1 µM in the assay with NCI-H23 lung. Also, the TGI in the assay on SN12C renal and with CCRF-CEM leukemia was more than 100 µM each time.

As to `Cc1cc2c(cc1C)[n+]([O-])c(-c1c(Cl)cccc1Cl)c(N)[n+]2[O-]`, the TGI with HT29 colon is more than 100 µM; in the assay on HOP-92 NSCLC it was more than 100 µM; in the assay with NCI-H460 lung, more than 100 µM; in the assay with SF-268 CNS, more than 100 µM; with NCI-H23 lung, 75.8 µM; in the assay with SN12C renal, more than 100 µM.

Consider `Nn1c(N=Nc2c(O)[nH]c3ccccc23)n[nH]c1=S`, for which the TGI in the assay on HT29 colon, in the assay with HOP-92 NSCLC, in the assay with SR leukemia, in the assay with NCI-H460 lung, in the assay with SF-268 CNS and with NCI-H23 lung was more than 100 µM each time. Further, the TGI with SN12C renal and in the assay on CCRF-CEM leukemia was more than 100 µM throughout.
